Results reported in US12441726B2, “Compounds and uses thereof” (Foghorn Therapeutics Inc., priority 2020, dated 2025).

What was measured:
BRM = BRM (Homo sapiens, UniProt P51531); assay: ATPase catalytic activity assay (ADP-Glo), BRM; conditions: 30 nM BRM, 400 μM ATP; for IC50: BRM ATPase: IC50 (uM)
BRG-1 = BRG-1 (Homo sapiens, UniProt P51532); assay: ATPase catalytic activity assay (ADP-Glo), BRG-1; conditions: for Emax: 1 h, read-out: BRG1 Max % Inhibition, ADP-Glo, 30 nM BRG-1, 400 μM ATP
Chain of BRG-1 (P51532 whole entry): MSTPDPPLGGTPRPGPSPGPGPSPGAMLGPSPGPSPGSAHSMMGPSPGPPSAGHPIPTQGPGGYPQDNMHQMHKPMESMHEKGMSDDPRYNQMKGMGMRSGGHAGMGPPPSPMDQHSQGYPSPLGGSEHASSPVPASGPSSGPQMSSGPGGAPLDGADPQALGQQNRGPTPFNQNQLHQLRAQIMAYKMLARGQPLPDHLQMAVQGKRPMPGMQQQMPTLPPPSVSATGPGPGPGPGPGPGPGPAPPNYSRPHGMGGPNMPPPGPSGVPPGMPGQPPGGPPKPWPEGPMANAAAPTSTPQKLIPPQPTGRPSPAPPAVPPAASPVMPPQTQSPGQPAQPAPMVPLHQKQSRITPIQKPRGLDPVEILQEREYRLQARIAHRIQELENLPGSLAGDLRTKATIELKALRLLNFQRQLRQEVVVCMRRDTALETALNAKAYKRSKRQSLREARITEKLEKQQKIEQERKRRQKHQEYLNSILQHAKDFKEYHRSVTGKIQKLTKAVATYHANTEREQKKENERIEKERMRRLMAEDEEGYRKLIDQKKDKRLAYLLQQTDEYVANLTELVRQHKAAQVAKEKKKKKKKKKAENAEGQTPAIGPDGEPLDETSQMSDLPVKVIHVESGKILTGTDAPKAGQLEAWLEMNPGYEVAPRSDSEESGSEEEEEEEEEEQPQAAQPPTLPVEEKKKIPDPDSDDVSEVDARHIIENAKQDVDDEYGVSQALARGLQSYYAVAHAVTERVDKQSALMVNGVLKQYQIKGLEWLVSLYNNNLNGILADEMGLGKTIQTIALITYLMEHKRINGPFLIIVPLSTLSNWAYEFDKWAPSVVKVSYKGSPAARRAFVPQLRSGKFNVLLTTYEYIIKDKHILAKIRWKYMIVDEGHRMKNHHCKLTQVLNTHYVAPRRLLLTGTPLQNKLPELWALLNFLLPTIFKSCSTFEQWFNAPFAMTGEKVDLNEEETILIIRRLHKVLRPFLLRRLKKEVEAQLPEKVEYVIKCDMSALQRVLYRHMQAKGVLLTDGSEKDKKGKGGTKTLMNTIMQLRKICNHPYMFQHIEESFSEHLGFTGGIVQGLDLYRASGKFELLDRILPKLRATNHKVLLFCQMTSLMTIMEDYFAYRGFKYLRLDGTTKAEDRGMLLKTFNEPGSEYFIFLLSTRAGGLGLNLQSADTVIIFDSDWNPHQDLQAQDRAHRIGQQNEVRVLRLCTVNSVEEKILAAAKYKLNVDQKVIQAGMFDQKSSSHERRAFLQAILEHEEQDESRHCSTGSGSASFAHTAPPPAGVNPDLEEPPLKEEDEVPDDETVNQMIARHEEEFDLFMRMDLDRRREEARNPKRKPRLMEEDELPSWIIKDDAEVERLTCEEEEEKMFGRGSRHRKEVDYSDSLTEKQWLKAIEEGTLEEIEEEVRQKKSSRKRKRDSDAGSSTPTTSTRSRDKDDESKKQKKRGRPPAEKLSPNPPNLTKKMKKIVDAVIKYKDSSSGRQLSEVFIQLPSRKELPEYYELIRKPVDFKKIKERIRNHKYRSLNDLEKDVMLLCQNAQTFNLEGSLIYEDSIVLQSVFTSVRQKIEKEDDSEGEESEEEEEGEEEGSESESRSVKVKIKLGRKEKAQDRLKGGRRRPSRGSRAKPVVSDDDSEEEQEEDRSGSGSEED
Procedure: The ATPase catalytic activity of BRM or BRG-1 was measured by an in vitro biochemical assay using ADP-Glo™ (Promega, V9102). The ADP-Glo™ kinase assay is performed in two steps once the reaction is complete. The first step is to deplete any unconsumed ATP in the reaction. The second step is to convert the reaction product ADP to ATP, which will be utilized by the luciferase to generate luminesce and be detected by a luminescence reader, such as Envision.
Then following addition of 5 μL of ADP-Glo™ Reagent provided in the kit, the reaction incubates at room temperature for 40 minutes. Then 10 μL of Kinase Detection Reagent provided in the kit is added to convert ADP to ATP, and the reaction incubates at room temperature for 60 minutes. Finally, luminescence measurement is collected with a plate-reading luminometer, such as Envision.

Chain of BRM (P51531 whole entry): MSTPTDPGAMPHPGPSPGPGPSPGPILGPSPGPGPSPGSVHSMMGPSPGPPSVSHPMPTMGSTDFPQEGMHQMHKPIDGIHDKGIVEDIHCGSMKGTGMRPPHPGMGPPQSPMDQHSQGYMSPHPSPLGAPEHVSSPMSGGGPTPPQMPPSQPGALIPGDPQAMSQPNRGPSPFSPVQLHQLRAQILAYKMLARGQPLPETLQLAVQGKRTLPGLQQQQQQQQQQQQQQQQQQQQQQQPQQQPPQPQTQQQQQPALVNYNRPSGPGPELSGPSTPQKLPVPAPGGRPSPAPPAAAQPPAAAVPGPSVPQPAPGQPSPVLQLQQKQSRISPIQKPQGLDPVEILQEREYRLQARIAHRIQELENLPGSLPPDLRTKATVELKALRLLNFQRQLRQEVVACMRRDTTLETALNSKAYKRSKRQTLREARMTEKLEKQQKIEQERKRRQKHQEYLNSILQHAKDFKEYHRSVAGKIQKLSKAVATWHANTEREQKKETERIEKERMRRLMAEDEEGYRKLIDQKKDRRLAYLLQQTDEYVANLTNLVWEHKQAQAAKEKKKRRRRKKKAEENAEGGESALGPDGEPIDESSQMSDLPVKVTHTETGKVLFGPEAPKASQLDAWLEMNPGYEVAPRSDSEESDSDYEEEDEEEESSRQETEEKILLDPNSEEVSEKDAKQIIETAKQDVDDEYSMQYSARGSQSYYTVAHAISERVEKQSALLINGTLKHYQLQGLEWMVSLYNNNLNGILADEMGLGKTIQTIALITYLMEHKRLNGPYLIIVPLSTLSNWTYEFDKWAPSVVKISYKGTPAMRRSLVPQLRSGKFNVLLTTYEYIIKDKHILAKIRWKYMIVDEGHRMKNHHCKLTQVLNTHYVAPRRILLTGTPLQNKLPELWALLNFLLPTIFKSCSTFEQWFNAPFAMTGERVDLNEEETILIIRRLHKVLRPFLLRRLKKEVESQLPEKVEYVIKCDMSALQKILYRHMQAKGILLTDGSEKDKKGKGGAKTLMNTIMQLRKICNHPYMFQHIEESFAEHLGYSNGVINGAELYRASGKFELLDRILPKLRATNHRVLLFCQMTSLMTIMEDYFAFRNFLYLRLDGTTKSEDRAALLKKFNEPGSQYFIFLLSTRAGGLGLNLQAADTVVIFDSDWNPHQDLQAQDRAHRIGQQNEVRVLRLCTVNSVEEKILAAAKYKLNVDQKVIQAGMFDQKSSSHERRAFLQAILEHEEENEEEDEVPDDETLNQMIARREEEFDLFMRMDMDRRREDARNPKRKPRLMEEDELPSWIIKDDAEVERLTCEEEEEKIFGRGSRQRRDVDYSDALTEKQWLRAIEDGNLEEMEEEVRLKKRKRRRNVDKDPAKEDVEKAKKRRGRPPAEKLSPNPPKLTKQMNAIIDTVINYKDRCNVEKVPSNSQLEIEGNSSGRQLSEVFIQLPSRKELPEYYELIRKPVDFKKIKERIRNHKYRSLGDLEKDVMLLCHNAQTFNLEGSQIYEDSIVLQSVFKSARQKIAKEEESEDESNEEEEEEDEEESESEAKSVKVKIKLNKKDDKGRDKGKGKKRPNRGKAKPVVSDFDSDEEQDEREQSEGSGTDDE

Row | BRM Max % Inhibition (BRM) | IC50 (BRM) | IC50 (BRG-1) | Emax (BRG-1) | SMILES
1 | 84% | 0.1 to 0.5 µM | > 1000 nM | 37% | CN1CC(c2cccc(-c3ccc4cnc(CNC(=O)c5ccc6c(c5)[C@](C)(C#N)COC6)cc4n3)c2)C1 [Compound 421]
2 | 100% | < 0.1 µM | 100 to 500 nM | 93% | C[C@@]1(C#N)COCc2ccc(C(=O)NCc3cc4nc(-c5cncc(C6CC6)n5)ccc4cn3)cc21 [Compound 406]
3 | 99% | < 0.1 µM | 100 to 500 nM | 93% | C[C@@]1(C#N)COCc2ncc(C(=O)NCc3cc4nc(-c5cccc(C6CC6)n5)ccc4nn3)cc21 [Compound 189]
4 | 79% | 0.1 to 0.5 µM | > 1000 nM | 39% | COc1ncccc1-c1nc2cc(CNC(=O)c3ccc4c(c3)[C@](C)(C#N)COC4)ncc2s1 [Compound 354]
5 | 107% | 0.1 to 0.5 µM | 500 to 1000 nM | 80% | CC(=O)N1CCOc2c(-c3ccc4cnc(CNC(=O)c5ccc6c(c5)[C@](C)(C#N)COC6)cc4n3)cccc21 [Compound 320]
6 | 103% | < 0.1 µM | 100 to 500 nM | 96% | C[C@@]1(F)COCc2ccc(C(=O)NCc3cc4cc(-c5cccc(N6CCC6)n5)ccc4cn3)cc21 [Compound 368]
7 | 75% | > 1 µM | > 1000 nM | 28% | COC(=O)c1cccc(C#Cc2ccnc(CNC(=O)c3ccc4c(c3)[C@](C)(C#N)CCN4)c2)c1 [Compound 39]
8 | 92% | 0.1 to 0.5 µM | > 1000 nM | 47% | C[C@@]1(C#N)COCc2ccc(C(=O)NCc3cc4cc(N5CCn6ncc(C(F)F)c6C5)cnc4cn3)cc21 [Compound 220]
9 | 93% | 0.1 to 0.5 µM | 500 to 1000 nM | 54% | Cc1nn(C)cc1-c1ccc2cnc(CNC(=O)c3ccc4c(c3)[C@](C)(C#N)COC4)cc2n1 [Compound 509]
10 | 94% | 0.1 to 0.5 µM | 500 to 1000 nM | 48% | COc1nn(C2CC2(F)F)cc1-c1ccc2cnc(CNC(=O)c3ccc4c(c3)[C@](C)(C#N)COC4)cc2n1 (stereo partly drawn) [Compound 140]
11 | 88% | 0.1 to 0.5 µM | > 1000 nM | 33% | Cn1nccc(-c2ccc3cnc(CNC(=O)c4ccc5c(c4)[C@](C)(F)COC5)cc3n2)c1=O [Compound 293]
12 | 98% | < 0.1 µM | 500 to 1000 nM | 78% | COc1cc(F)cc(-c2ccc3cnc(CNC(=O)c4ccc5c(c4)[C@](C)(C#N)COC5)cc3n2)c1 [Compound 101]
13 | 98% | < 0.1 µM | 100 to 500 nM | 95% | COc1cc(F)ccc1-c1ccc2cnc(CNC(=O)c3ccc4c(c3)[C@](C)(C#N)COC4)cc2n1 [Compound 481]
14 | 101% | < 0.1 µM | 500 to 1000 nM | 78% | COc1nn(C)cc1-c1ccc2cnc(CNC(=O)c3ccc4c(c3)[C@](C)(F)COC4)cc2n1 [Compound 343]
15 | 93% | 0.1 to 0.5 µM | 500 to 1000 nM | 45% | COc1nn(C)cc1-c1nc2cc(CNC(=O)c3ccc4c(c3)[C@](C)(C#N)COC4)ncc2s1 [Compound 274]
16 | 99% | < 0.1 µM | 100 to 500 nM | 86% | CNC(=O)c1cc(-c2ccc3cnc(CNC(=O)c4ccc5c(c4)[C@](C)(C#N)COC5)cc3n2)ccc1F [Compound 467]
17 | 88% | 0.1 to 0.5 µM | > 1000 nM | 48% | C[C@@]1(C#N)COCc2ccc(C(=O)NCc3cc(N4Cc5ccncc5C4)ccn3)cc21 [Compound 53]
18 | 103% | < 0.1 µM | < 100 nM | 100% | C[C@@]1(C#N)COCc2ccc(C(=O)NCc3cc4nc(-c5cccc(N6CCOCC6)n5)ccc4cn3)cc21 [Compound 373]
